Measurements published in patent US20240360076A1, “NONIONIC SURFACTANTS” (priority 2023, published 2024).

Tests used:
FluB target RNA sequence = experiment: FluB LAMP assay, time to positive; type: biochemical; conditions: for compatibility with FluB assay: presence of nasal matrix
Experimental: As the surfactant concentration approaches its critical micelle concentration (CMC), detrimental impact is observed on LAMP performance.
It was determined that DS2 is compatible with FluB assay in the presence of nasal matrix at 0.015%.

[1] = test system: SARS-COV-2 target template; experiment: SARS-COV-2 LAMP assay; type: biochemical; conditions: 0.0075% in LAMP MasterMix
[2] = type: physicochemical; conditions: buffer, 1 month, 0.1 %, pH 8.8
Experimental: Solutions of isothermal amplification buffers at pH 8.8 containing 0.1% of DS2, DS13, or DS17 were kept at 25° C. and analyzed over time using HPLC. It was observed that 95%-100% of the surfactant remained after one month (FIG. 5A) and therefore DSs are stable in pH 8.8 amplification buffer when stored in ambient conditions.

[3] = CMC determination by dynamic light scattering; type: physicochemical
Experimental: Average micelle radius data was collected on a DynaPro NanoStar Dynamic Light Scattering Detector. To each disposable cuvette was added 5 μL of the specified solution of DS1, DS2, or DS13 in water (T=25° C., n=10).

Ex2B target template = experiment: Ex2B LAMP assay; conditions: 0.0075% in LAMP MasterMix
Experimental: DS2 was added at 0%, 0.015%, 0.0575%, and 0.1% to the LAMP MasterMix, or LAMP buffer, containing target-specific primers, dNTPs, DNA polymerase, reverse transcriptase, intercalating fluorescent dye, and the target RNA sequence. This reaction mixture was incubated at 62° C. for 50 minutes and the increase in fluorescence was assessed to determine the time to positivity.
DS2, DS13, and DS17 were added at 0.0075% to the LAMP MasterMix using the above procedure with Ex2B target template (FIG. 4B).

MS2 template = experiment: Lyophilized MS2 LAMP chemistry, time to positive; type: biochemical; conditions: 0%, 0.03% or 0.06%; template 0.12 cp/μL and 0.06 cp/μL
[4] = 2 months

SMILES: CCCCCCCCCCC(=O)N(CCOCCOCCOC)CCOCCOCCOC [DS2]
- compatibility with FluB assay (FluB target RNA sequence; 0.0075% in LAMP MasterMix): compatible
- compatibility with FluB assay (FluB target RNA sequence; 0.015% in LAMP buffer): compatible
- impact on LAMP performance at the CMC (FluB target RNA sequence; 0.1% DS2, FluB LAMP, nasal matrix, 62° C. for 50 minutes): delay in the contrived positive amplification
- impact on assay specificity below the CMC (FluB target RNA sequence; concentrations below the CMC): no detrimental impact
- compatibility with SARS-COV-2 assay [1]: compatible
- surfactant remaining [2]: 95%-100
- critical micelle concentration (CMC) [3]: 0.1%
- compatibility with Ex2B assay (Ex2B target template): compatible

SMILES: CCCCCCCCCCC(=O)N(CCOCCOCCOCCOC)CCOCCOCCOCCOC [DS13]
- compatibility with FluB assay (FluB target RNA sequence; 0.0075% in LAMP MasterMix): compatible
- compatibility with SARS-COV-2 assay [1]: compatible
- surfactant remaining [2]: 95%-100
- impact on time to positive (Tp, min) (MS2 template): no detrimental impact
- remaining [4]: 97.1±1.5%
- compatibility with Ex2B assay (Ex2B target template): compatible

SMILES: CCCCCCCCCCC(=O)NCCOCCOCCOCCOCCOCCOC [DS17]
- compatibility with FluB assay (FluB target RNA sequence; 0.0075% in LAMP MasterMix): compatible
- compatibility with SARS-COV-2 assay [1]: compatible
- surfactant remaining [2]: 95%-100
- compatibility with Ex2B assay (Ex2B target template): compatible
